In assay [1] the target is T1, BlCel5B (Bacillus licheniformis, UniProt Q65JI7).
T1 construct: gene celC; full-length trimodular enzyme (CD, Ig-like, CBM46) without signal peptide (nucleotides 1-81 removed; gene end nt 1683); E. coli Rosetta2 (DE3), pETTRXA-1a/LIC; His6 tag cut by TEV; monomer
Description: X-ray crystal structure ([…] A) after soaking with cellopentaose. In kind it is binding. Conditions: crystal soaked with five times molar excess of cellopentaose for 24 h; cellotetraose from cleavage in the crystal; subsites -1 to -3 of the catalytic domain.

The target in assay [2] is T1, BlCel5B. As to the kind of experiment: MALDI/TOF-MS product profile. The settings on record: 1.0 mM cellopentaose, 10 mM ammonium bicarbonate pH 7.0, 50 C, 90 min. It is filed as biochemical.

T1 sequence (Q65JI7 entry or part of it): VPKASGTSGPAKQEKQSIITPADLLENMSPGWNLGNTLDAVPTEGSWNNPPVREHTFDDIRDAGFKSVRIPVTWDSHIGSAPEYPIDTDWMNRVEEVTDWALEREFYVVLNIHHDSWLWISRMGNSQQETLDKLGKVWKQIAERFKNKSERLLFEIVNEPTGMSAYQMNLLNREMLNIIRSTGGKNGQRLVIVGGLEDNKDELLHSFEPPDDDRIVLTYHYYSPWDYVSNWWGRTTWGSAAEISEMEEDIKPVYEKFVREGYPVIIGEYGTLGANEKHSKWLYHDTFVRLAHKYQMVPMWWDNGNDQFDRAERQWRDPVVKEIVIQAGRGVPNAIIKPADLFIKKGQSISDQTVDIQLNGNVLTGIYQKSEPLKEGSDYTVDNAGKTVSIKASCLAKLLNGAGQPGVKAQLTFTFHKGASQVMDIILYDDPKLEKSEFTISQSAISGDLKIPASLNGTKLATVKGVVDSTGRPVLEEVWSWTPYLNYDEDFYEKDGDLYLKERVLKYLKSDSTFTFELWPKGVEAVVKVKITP

For `OC[C@H]1O[C@@H](O[C@H]2[C@H](O)[C@@H](O)[C@H](O[C@H]3[C@H](O)[C@@H](O)[C@H](O[C@H]4[C@H](O)[C@@H](O)C(O)O[C@@H]4CO)O[C@@H]3CO)O[C@@H]2CO)[C@H](O)[C@@H](O)[C@@H]1O` (some centres unmarked) [C4, cellotetraose], the “X-ray crystal structure (1.75 A) after soaking with cellopentaose” value at BlCel5B [1] is on record as “Electron density maps clearly reveal the presence of a cellotetraose (C4)”.
As to `OC[C@H]1O[C@@H](O[C@H]2[C@H](O)[C@@H](O)[C@H](O[C@H]3[C@H](O)[C@@H](O)[C@H](O[C@H]4[C@H](O)[C@@H](O)[C@H](O[C@H]5[C@H](O)[C@@H](O)C(O)O[C@@H]5CO)O[C@@H]4CO)O[C@@H]3CO)O[C@@H]2CO)[C@H](O)[C@@H](O)[C@@H]1O` (some centres unmarked) [C5, cellopentaose], the MALDI/TOF-MS product profile entry on BlCel5B [2] is “ability of BlCel5B to cleave C5 into glucose and C4 molecules in solution was demonstrated”.

(Values after paper PMC4817029, “Molecular characterization of a family 5 glycoside hydrolase suggests an induced-fit enzymatic mechanism” (Scientific Reports, 2016).)
